The term inhibition denotes the drop in the measured response relative to a control, in per cent.

One assay concerns the target T1, TSLP-TSLPR interaction (Homo sapiens, UniProt Q969D9).
T1 construct: made in house
The assay is described as follows: ELISA-based TSLP-TSLPR interaction assay. The assay is classed as binding. As to conditions: for inhibition at 100 µM: compound 0.1 mM; for inhibition at 100 µM / inhibition at 300 µM / inhibition at 1000 µM: FLAG-TSLP / TSLPR-His ELISA, OD 450 nm; for inhibition at 300 µM: compound 0.3 mM; for inhibition at 1000 µM: compound 1 mM. As to the method:
To this end, home-made FLAG-TSLP protein and TSLPR-His protein were used to establish an ELISA-based TSLP-TSLPR interaction assay for measuring reactions with HRP. The inhibitory activities of the inventive compounds were evaluated by the interaction assay.
ELISA assay was conducted using an Ni-NTA HisSorb plate (Qiagen, Germany). 100 μL of a solution of TSLPR C-terminally tagged with hexahistidine (His) was dispensed into each well of the plate and incubated at room temperature for 2 h. After each well was washed twice with 200 μL of PBS and 0.05% Tween-20, 100 μL of a solution of each of the inventive compounds as a sample and 100 μL of TSLP N-terminally tagged with FLAG was dispensed into the well. After incubation at 4° C. overnight, each well was washed twice and treated with 100 μL of a blocking buffer (PBS-0.05% Tween 20 and 1% nonfat dry milk). The plate was washed twice, coated with 100 μL of a monoclonal anti-FLAG horseradish peroxidase antibody (Sigma-Aldrich Co., USA) for 2 h, and incubated at room temperature. Then, each well was washed 5 times, treated with 200 μL of a solution of o-phenylenediaminedihydrochloride (Sigma-Aldrich Co., USA), incubated for 30 min, and added with 1 N HCl.
Optical densities (ODs) were measured at 450 nm using a microplate spectrophotometer. The inhibitory effect of the compound on TSLP-TSLPR interaction was calculated using the following equation: Inhibition (inhibitory effect) (%)=(1−ODsample/ODcontrol)×100
A general note: In an ELISA, binding on a coated surface is turned into a signal by an enzyme label.

Assay [1] addresses T2, IL-33 (Homo sapiens, UniProt O95760).
T2 sequence (O95760 95-270): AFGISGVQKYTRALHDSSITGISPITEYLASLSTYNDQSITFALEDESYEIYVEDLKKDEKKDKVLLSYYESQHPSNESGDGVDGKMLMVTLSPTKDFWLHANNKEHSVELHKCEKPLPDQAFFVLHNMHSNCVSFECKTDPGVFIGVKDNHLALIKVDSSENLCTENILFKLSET
The assay is described as follows: Inhibition of IL-6 secretion by IL-33 inhibition in HMC-1 cells (IL-6 ELISA). In kind it is cell-based. To be noted: HMC1, HMC-1 cells with IL-33, 24 h, negative values indicate increased IL-6 secretion. As to the method:
First, HMC-1, a human mast cell line, was cultured until an appropriate number of cells was maintained in a 96-well plate. Mixtures of IL-33 and different concentrations (0.3, 3, and 30 μM) of each of the inventive compounds were treated on cells, incubated at 37° C. for 24 h, and centrifuged. The supernatants were analyzed for IL-6 secretion using an IL-6 ELISA kit (Biolegend, USA).

Assay [2] has as its system HDM-induced allergic airway inflammation. The assay is described as follows: House dust mite (HDM)-induced allergic airway inflammation mouse models. The assay is classed as in vivo. To be noted: 200 μg intraperitoneal, BALB/c mice, day 11, vs untreated controls (FIG. 4 and 5). The protocol: Splenocytes were isolated from DO11.10 mice and ˜1×10^6CD4T cells were transferred to pure BALB/c mice by intravenous injection. For 3 days from the next day, 100 μg of a mixture of HDM (Dermatophagoidesfarinae 50 μg, Dermatophagoidespteronyssinus 50 μg, Greer Laboratories, Inc., USA) and OVA (Sigma-Aldrich Co., USA) was administered intranasally to the mice. From day 2 after administration, the mice were treated with 200 μg of each of the inventive compounds or PBS (for control mice) three times daily through the intraperitoneal route. After the mice were euthanized on day 11, the numbers of total cells and eosinophils in the airways were checked. The treatment schedule with the Formula 5 (KB 1517) and Formula 10 (KB 1518) (200 μg each) in house dust mite (HDM)-induced allergic airway inflammation mouse models is shown in FIG. 8.

The target in assay [3] is T2, IL-33. The assay is described as follows: Inhibition of IL-6 secretion by IL-33 inhibition in HMC-1 cells (IL-6 ELISA). The assay is classed as cell-based. To be noted: HMC1, HMC-1 cells with IL-33, 24 h, negative values indicate increased IL-6 secretion. The source holds these as a separate data set.

`CN(C)CCn1c(=O)c2nc(-c3ccc(Cl)cc3)oc2c2ccccc21` [Compound 4, 2-(4-chlorophenyl)-5-(2-(dimethylamino)ethyl)oxazolo[4,5-c]quinolin-4(5H)-one]: on TSLP-TSLPR interaction, the inhibition at 100 µM was 28.8% and the inhibition at 300 µM is 46.6%. Further, at IL-33 [1], the inhibition at 0.3 µM is 22.5% and the inhibition at 3 µM was found to be 29.7%.

Consider `COc1ccc(-c2nc3c(=O)n(CCN(C)C)c4ccccc4c3o2)cc1` [Compound 6, 5-(2-(dimethylamino)ethyl)-2-(4-methoxyphenyl)oxazolo[4,5-c]quinolin-4(5H)-one], for which, on TSLP-TSLPR interaction, the inhibition at 100 µM stood at 25.8% and the inhibition at 300 µM is 54.7%. In addition, the inhibition at 3 µM at IL-33 [1] was -57.8%.

With `CN(C)CCn1c(=O)c2nc(-c3ccc(F)cc3)oc2c2ccccc21` [Compound 3, 5-(2-(dimethylamino)ethyl)-2-(4-fluorophenyl)oxazolo[4,5-c]quinolin-4(5H)-one], on TSLP-TSLPR interaction, the inhibition at 100 µM was 17.7% and the inhibition at 300 µM came to 27.5%. For the same compound, the inhibition at 3 µM on IL-33 [1] amounted to 29.8%.

Take “FLAG tag-free TSLP: TSLP protein without FLAG tag, 1 mg/mL, competitor control in the TSLP-TSLPR ELISA [reference compound]”: in the assay with TSLP-TSLPR interaction (1 mg/mL FLAG tag-free TSLP as competitor), the “Inhibition (%)” value is on record as 40.7%.

In the case of `CN(C)CCOc1nc2ccccc2c2oc(-c3ccccc3)nc12` [Compound 7, N,N-dimethyl-2-((2-phenyloxazolo[4,5-c]quinolin-4-yl)oxy)ethanamine], at TSLP-TSLPR interaction, the inhibition at 100 µM worked out at 27.8%, the inhibition at 300 µM worked out at 54.6% and the inhibition at 1000 µM worked out at 57.2%. In addition, on IL-33 [1], the inhibition at 3 µM is 35.6%.

`CN(C)CCn1c(=O)c2nc(-c3ccccc3)oc2c2ccccc21` [Compound 2, 5-(2-(dimethylamino)ethyl)-2-phenyloxazolo[4,5-c]quinolin-4(5H)-one]: at TSLP-TSLPR interaction, the inhibition at 100 µM stood at 26.7%, the inhibition at 300 µM came out at 49% and the inhibition at 1000 µM turned out to be 66.9%. In addition, the inhibition at 3 µM against IL-33 [1] is -11.8%.

In the case of `CN(C)CCn1c(=O)c2nc(-c3ccc(C(F)(F)F)cc3)oc2c2ccccc21` [Compound 5, 5-(2-(dimethylamino)ethyl)-2-(4-(trifluoromethyl)phenyl)oxazolo[4,5-c]quinolin-4(5H)-one], at TSLP-TSLPR interaction, the inhibition at 100 µM was 23.2% and the inhibition at 300 µM came out at 29.6%. Besides, on IL-33 [1], the inhibition at 0.3 µM stood at 30.4% and the inhibition at 3 µM was 28.2%. For the same compound, in assay [2], the “number of eosinophils in the airways” value was “significantly reduced” and the “number of total cells in the airways” value was “significantly reduced”.

Consider `CN(C)CCOc1nc2ccccc2c2oc(-c3ccc(C(F)(F)F)cc3)nc12` [Compound 10, N,N-dimethyl-2-((2-(4-(trifluoromethyl)phenyl)oxazolo[4,5-c]quinolin-4-yl)oxy)ethanamine], for which, on IL-33 [1], the inhibition at 0.3 µM turned out to be 49.3% and the inhibition at 3 µM is 51.3%. Besides, in assay [2], the “number of eosinophils in the airways” value was “significantly reduced” and the “number of total cells in the airways” value is recorded as “significantly reduced”. Further, the inhibition at 0.03 µM on IL-33 [3] is 32.7%.

The values are drawn from patent publication US11168094B2, “Quinolinone derivative and pharmaceutical composition for preventing or treating allergic diseases such as asthma or atopic dermatitis including the quinolinone derivative as active ingredient” (Azcuris Co., Ltd., priority 2017, dated 2021).
